Experimental data taken from patent publication US20160367623A1, “AGONISTS OF GUANYLATE CYCLASE USEFUL FOR THE TREATMENT OF GASTROINTESTINAL DISORDERS, INFLAMMATION, CANCER AND OTHER DISORDERS” (priority 2015, published 2016).
Bridge positions count the residues as written; N and C are the ends. Ends that are not written are not given here.

Test system: patients with chronic idiopathic constipation (CIC)
Test: Second phase 3 CIC trial: CSBM weekly responders by week
Type: in vivo, human
Details: MRA
Source text: Both trials include a two-week pre-treatment baseline period, a 12-week treatment period, and a two-week post-treatment period. The phase 3 CIC program was designed to support regulatory submission in the U. S.
The primary endpoint for both trials is the proportion of durable overall responders (%), which is the current regulatory endpoint required for U.S. approval in CIC. The FDA has defined a durable overall responder as a patient who fulfills both ≧3 complete spontaneous bowel movements (CSBMs) per week plus an increase of ≧1 CSBM from baseline in the same week, for 9 out of the 12 treatment weeks. In addition, the same patient must be an overall responder for at least 3 of the last 4 treatment weeks in order to be considered a durable overall responder.
Patients were selected using Rome 3 criteria modified for CIC and had (1) fewer than 3 defecations per week, (2) loose stools occurring rarely without laxatives, (3) inadequate criteria for irritable bowel syndrome with constipation (IBS-C), and (4) at least two of the following applied to at least 25% of defecations: (a) straining during evacuation, (b) lumpy or hard stools, (c) sensation of anorectal obstruction or blockage. Rome 3 requires patients to fulfill the criteria for the last 3 months with symptom onset at least 6 months prior to diagnosis.

[1] = Week 6, 3 mg, ITT Population-Excluding Duplicate Patients
[2] = Week 6, 6 mg, ITT Population-Excluding Duplicate Patients
[3] = Week 6, Active Combined, ITT Population-Excluding Duplicate Patients
[4] = Week 6, Active Combined, ITT Population
[5] = Week 7, 3 mg, ITT Population-Excluding Duplicate Patients
[6] = Week 7, 6 mg, ITT Population-Excluding Duplicate Patients
[7] = Week 7, Active Combined, ITT Population-Excluding Duplicate Patients
[8] = Week 7, Active Combined, ITT Population
[9] = Week 8, 3 mg, ITT Population-Excluding Duplicate Patients
[10] = Week 8, 6 mg, ITT Population-Excluding Duplicate Patients
[11] = Week 8, Active Combined, ITT Population-Excluding Duplicate Patients
[12] = Week 8, Active Combined, ITT Population
[13] = Week 9, 3 mg, ITT Population-Excluding Duplicate Patients
[14] = Week 9, 6 mg, ITT Population-Excluding Duplicate Patients

## Asn^1-Asp^2-Glu^3-Cys^4-Glu^5-Leu^6-Cys^7-Val^8-Asn^9-Val^10-Ala^11-Cys^12-Thr^13-Gly^14-Cys^15-Leu^16 (NDECELCVNVACTGCL; disulfide 4-12, 7-15) [Plecanatide, uroguanylin analogue, guanylate cyclase-C agonist; (C4:C12, C7:C15) bicycle peptide]
Week 5, Active Combined, ITT Population
  Non-Responders, n (%): 605 (67.8) n (%)
Week 6, 3 mg minus placebo, All Randomized (includes Duplicate Patients)
  Difference in Proportions (adjusted): 0.100
Week 6, 3 mg vs placebo, All Randomized (includes Duplicate Patients)
  Odds Ratio (adjusted): 0.593
Week 6, 3 mg, ITT Population
  CSBM Weekly Responders, n (%): 137 (30.9) n (%)
  Non-Responders, n (%): 306 (69.1) n (%)
[1]
  CSBM Weekly Responders, n (%): 136 (31.3) n (%)
  Non-Responders, n (%): 298 (68.7) n (%)
Week 6, 6 mg minus placebo, All Randomized (includes Duplicate Patients)
  Difference in Proportions (adjusted): 0.110
Week 6, 6 mg vs placebo, All Randomized (includes Duplicate Patients)
  Odds Ratio (adjusted): 0.566
Week 6, 6 mg, ITT Population
  CSBM Weekly Responders, n (%): 146 (32.5) n (%)
  Non-Responders, n (%): 303 (67.5) n (%)
[2]
  CSBM Weekly Responders, n (%): 146 (33.0) n (%)
  Non-Responders, n (%): 297 (67.0) n (%)
Week 6, 3 mg minus placebo, ITT Population-Excluding Duplicate Patients
  Difference in Proportions (adjusted): 0.096
Week 6, 3 mg minus placebo, ITT Population
  Difference in Proportions (adjusted): 0.093
Week 6, 3 mg vs placebo, ITT Population-Excluding Duplicate Patients
  Odds Ratio (adjusted): 0.610
Week 6, 3 mg vs placebo, ITT Population
  Odds Ratio (adjusted): 0.615
Week 6, 6 mg minus placebo, ITT Population-Excluding Duplicate Patients
  Difference in Proportions (adjusted): 0.112
Week 6, 6 mg minus placebo, ITT Population
  Difference in Proportions (adjusted): 0.109
Week 6, 6 mg vs placebo, ITT Population-Excluding Duplicate Patients
  Odds Ratio (adjusted): 0.565
Week 6, 6 mg vs placebo, ITT Population
  Odds Ratio (adjusted): 0.571
[3]
  CSBM Weekly Responders, n (%): 282 (32.2) n (%)
  Non-Responders, n (%): 595 (67.8) n (%)
[4]
  CSBM Weekly Responders, n (%): 283 (31.7) n (%)
  Non-Responders, n (%): 609 (68.3) n (%)
Week 7, 3 mg minus placebo, All Randomized (includes Duplicate Patients)
  Difference in Proportions (adjusted): 0.091
Week 7, 3 mg vs placebo, All Randomized (includes Duplicate Patients)
  Odds Ratio (adjusted): 0.634
Week 7, 3 mg, ITT Population
  CSBM Weekly Responders, n (%): 145 (32.7) n (%)
  Non-Responders, n (%): 298 (67.3) n (%)
[5]
  CSBM Weekly Responders, n (%): 144 (33.2) n (%)
  Non-Responders, n (%): 290 (66.8) n (%)
Week 7, 6 mg minus placebo, All Randomized (includes Duplicate Patients)
  Difference in Proportions (adjusted): 0.075
Week 7, 6 mg vs placebo, All Randomized (includes Duplicate Patients)
  Odds Ratio (adjusted): 0.681
Week 7, 6 mg, ITT Population
  CSBM Weekly Responders, n (%): 140 (31.2) n (%)
  Non-Responders, n (%): 309 (68.8) n (%)
[6]
  CSBM Weekly Responders, n (%): 140 (31.6) n (%)
  Non-Responders, n (%): 303 (68.4) n (%)
Week 7, 3 mg minus placebo, ITT Population-Excluding Duplicate Patients
  Difference in Proportions (adjusted): 0.089
Week 7, 3 mg minus placebo, ITT Population
  Difference in Proportions (adjusted): 0.085
Week 7, 3 mg vs placebo, ITT Population-Excluding Duplicate Patients
  Odds Ratio (adjusted): 0.645
Week 7, 3 mg vs placebo, ITT Population
  Odds Ratio (adjusted): 0.659
Week 7, 6 mg minus placebo, ITT Population-Excluding Duplicate Patients
  Difference in Proportions (adjusted): 0.074
Week 7, 6 mg minus placebo, ITT Population
  Difference in Proportions (adjusted): 0.069
Week 7, 6 mg vs placebo, ITT Population-Excluding Duplicate Patients
  Odds Ratio (adjusted): 0.693
Week 7, 6 mg vs placebo, ITT Population
  Odds Ratio (adjusted): 0.707
[7]
  CSBM Weekly Responders, n (%): 284 (32.4) n (%)
  Non-Responders, n (%): 593 (67.6) n (%)
[8]
  CSBM Weekly Responders, n (%): 285 (32.0) n (%)
  Non-Responders, n (%): 607 (68.0) n (%)
Week 8, 3 mg minus placebo, All Randomized (includes Duplicate Patients)
  Difference in Proportions (adjusted): 0.076
Week 8, 3 mg vs placebo, All Randomized (includes Duplicate Patients)
  Odds Ratio (adjusted): 0.687
Week 8, 3 mg, ITT Population
  CSBM Weekly Responders, n (%): 145 (32.7) n (%)
  Non-Responders, n (%): 298 (67.3) n (%)
[9]
  CSBM Weekly Responders, n (%): 144 (33.2) n (%)
  Non-Responders, n (%): 290 (66.8) n (%)
Week 8, 6 mg minus placebo, All Randomized (includes Duplicate Patients)
  Difference in Proportions (adjusted): 0.067
Week 8, 6 mg vs placebo, All Randomized (includes Duplicate Patients)
  Odds Ratio (adjusted): 0.716
Week 8, 6 mg, ITT Population
  CSBM Weekly Responders, n (%): 144 (32.1) n (%)
  Non-Responders, n (%): 305 (67.9) n (%)
[10]
  CSBM Weekly Responders, n (%): 143 (32.3) n (%)
  Non-Responders, n (%): 300 (67.7) n (%)
Week 8, 3 mg minus placebo, ITT Population-Excluding Duplicate Patients
  Difference in Proportions (adjusted): 0.073
Week 8, 3 mg minus placebo, ITT Population
  Difference in Proportions (adjusted): 0.069
Week 8, 3 mg vs placebo, ITT Population-Excluding Duplicate Patients
  Odds Ratio (adjusted): 0.703
Week 8, 3 mg vs placebo, ITT Population
  Odds Ratio (adjusted): 0.717
Week 8, 6 mg minus placebo, ITT Population-Excluding Duplicate Patients
  Difference in Proportions (adjusted): 0.064
Week 8, 6 mg minus placebo, ITT Population
  Difference in Proportions (adjusted): 0.062
Week 8, 6 mg vs placebo, ITT Population-Excluding Duplicate Patients
  Odds Ratio (adjusted): 0.731
Week 8, 6 mg vs placebo, ITT Population
  Odds Ratio (adjusted): 0.738
[11]
  CSBM Weekly Responders, n (%): 287 (32.7) n (%)
  Non-Responders, n (%): 590 (67.3) n (%)
[12]
  CSBM Weekly Responders, n (%): 289 (32.4) n (%)
  Non-Responders, n (%): 603 (67.6) n (%)
Week 9, 3 mg minus placebo, All Randomized (includes Duplicate Patients)
  Difference in Proportions (adjusted): 0.084
Week 9, 3 mg vs placebo, All Randomized (includes Duplicate Patients)
  Odds Ratio (adjusted): 0.656
Week 9, 3 mg, ITT Population
  CSBM Weekly Responders, n (%): 147 (33.2) n (%)
  Non-Responders, n (%): 296 (66.8) n (%)
[13]
  CSBM Weekly Responders, n (%): 146 (33.6) n (%)
  Non-Responders, n (%): 288 (66.4) n (%)
Week 9, 6 mg minus placebo, All Randomized (includes Duplicate Patients)
  Difference in Proportions (adjusted): 0.073
Week 9, 6 mg vs placebo, All Randomized (includes Duplicate Patients)
  Odds Ratio (adjusted): 0.691
Week 9, 6 mg, ITT Population
  CSBM Weekly Responders, n (%): 141 (31.4) n (%)
  Non-Responders, n (%): 308 (68.6) n (%)
[14]
  CSBM Weekly Responders, n (%): 140 (31.6) n (%)
  Non-Responders, n (%): 303 (68.4) n (%)
Week 9, 3 mg minus placebo, ITT Population-Excluding Duplicate Patients
  Difference in Proportions (adjusted): 0.082
Week 9, 3 mg minus placebo, ITT Population
  Difference in Proportions (adjusted): 0.082
Week 9, 3 mg vs placebo, ITT Population-Excluding Duplicate Patients
  Odds Ratio (adjusted): 0.673
Week 9, 3 mg vs placebo, ITT Population
  Odds Ratio (adjusted): 0.67
Week 9, 6 mg minus placebo, ITT Population-Excluding Duplicate Patients
  Difference in Proportions (adjusted): 0.062
Week 9, 6 mg minus placebo, ITT Population
  Difference in Proportions (adjusted): 0.065
Week 9, 6 mg vs placebo, ITT Population-Excluding Duplicate Patients
  Odds Ratio (adjusted): 0.738
